The text below walks through data of article PMC13266984 (Journal of medicinal chemistry, 2026).

This assay addresses T1, Human ALDH3A1 (Homo sapiens, UniProt P30838).
T1 sequence (P30838 1-453): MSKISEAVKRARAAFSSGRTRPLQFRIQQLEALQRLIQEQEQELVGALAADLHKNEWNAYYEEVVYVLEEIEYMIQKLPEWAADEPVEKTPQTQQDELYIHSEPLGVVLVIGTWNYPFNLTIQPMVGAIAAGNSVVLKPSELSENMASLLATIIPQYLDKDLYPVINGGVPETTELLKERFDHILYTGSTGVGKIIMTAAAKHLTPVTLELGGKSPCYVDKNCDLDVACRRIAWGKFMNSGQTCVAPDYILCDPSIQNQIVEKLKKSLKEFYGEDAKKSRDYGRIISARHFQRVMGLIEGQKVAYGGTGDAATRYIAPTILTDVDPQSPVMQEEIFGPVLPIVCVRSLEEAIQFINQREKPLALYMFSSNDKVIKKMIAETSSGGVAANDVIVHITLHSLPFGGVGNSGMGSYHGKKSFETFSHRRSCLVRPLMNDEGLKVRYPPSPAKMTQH
Briefly: ALDH3A1 biochemical assay (benzaldehyde/NADP+, diaphorase-resazurin readout, 1,536-well). The following applies: for CC-v2: curve class. On the technique in general: Resazurin is reduced to fluorescent resorufin, in cell work by metabolically active cells.

Molecules are shown by their SMILES.

The term AC50 denotes the concentration giving half of the maximal activity seen. A high value points to activity only at high concentration. Consider `CN1CCOc2c(C(=O)NCCC(N)=O)cc(-c3ccccc3O)cc21` [NCGC00417061-01], for which the activity was half-maximal at 0.63 µM (AC50). Where the note is “Table S2, in-house analogs”, this compound came in with an Efficacy of -48.22 and a CC-v2 of -1.2.

In turn, `Cc1cc(CNC(=O)c2cc(-c3cnn(C)c3)cc3c2OCCN3C)no1` [NCGC00417081-01] gave an AC50 of 15.8 µM. Besides, under “Table S2, in-house analogs”, the Efficacy is -39.10 and the CC-v2 was -2.2.

Compound `CC(=O)Nc1cccc(-c2cc(C(=O)NCc3cnn(C)c3)c3c(c2)N(C)CCO3)c1` [NCGC00417085-01] came in with an AC50 of 28.2 µM. Under “Table S2, in-house analogs”, the Efficacy was -77.64 and the CC-v2 is reported as -2.2.

In the case of `CN1CCOc2c(C(=O)NCc3cccnc3)cc(-c3cnn(C)c3)cc21` [NCGC00417099-01], the AC50 came to 0.79 µM. In addition, where the note is “Table S2, in-house analogs”, the Efficacy was -54.49 and the CC-v2 was -1.4.

`Cc1c(-c2cc(C(=O)NCc3cccnc3)c3c(c2)N(C)CCO3)cnn1C` [NCGC00417124-01] displayed an AC50 of 2.82 µM. For the setting “Table S2, in-house analogs”, this compound returned an Efficacy of -61.06 and a CC-v2 of -2.2.

The compound `Cc1nn(-c2ccc(C(C)C)cc2)c(C)c1[C@@H]1C=C[C@@H](NCc2cccc(C#N)c2)C1` [NCGC00421409-01] had an AC50 of 10 µM. For the setting “Table S2, in-house analogs”, this compound returned an Efficacy of -39.09 and a CC-v2 of -1.2.

On to `COCc1nc(N2CCC(Cn3cccn3)CC2)cc([C@H]2C[C@H](N)C2)n1` [NCGC00422389-01], for which half-maximal activity (AC50) was put at 15.8 µM. For the same compound, under “Table S1, primary screen”, the Efficacy is recorded as -81.78 and the CC-v2 is recorded as -3.

As for `CCn1nc(C)c(CNC(=O)c2cc(COc3ccc4ncccc4c3)on2)c1C` [NCGC00426725-01], the AC50 turned out to be 28.2 µM. Where the note is “Table S1, primary screen”, this compound gave an Efficacy of -57.51 and a CC-v2 of -2.2.

Consider `COc1ccc(OCc2cc(C(=O)NC(CO)C(C)C)no2)c2ccccc12` (stereo not drawn) [NCGC00427669-01], for which the AC50 amounted to 3.98 µM. For the setting “Table S1, primary screen”, the Efficacy is given as -69.95 and the CC-v2 is on record as -1.2.

On to `COCc1noc(-c2ccc(NC[C@H]3CCc4ccccc4O3)nc2)n1` [NCGC00428876-01], for which the AC50 came to 31.6 µM. Under “Table S1, primary screen”, the Efficacy is -39.16 and the CC-v2 is -2.2.

Regarding `COCCNC(=O)c1ccc2c(c1)N(C)C(CC(=O)NCC(C)C)CO2` (stereo not drawn) [NCGC00429361-01], the AC50 is 28.2 µM. Under “Table S1, primary screen”, this compound had an Efficacy of -36.95 and a CC-v2 of -3.

What is called IC50 is the concentration at which inhibition is half-maximal. Read a low IC50 as higher potency. As to `Cc1cccc(CNC(=O)c2csc(N3CCN(c4ccccc4)CC3)n2)c1` [NCGC00430642-01], the activity was half-maximal at 1.41 µM (AC50) and the “Efficacy (ALDH3A1 biochemical)” value was determined as 74%. For the same compound, the IC50 (ALDH3A1 biochemical IC50, text) amounted to 1.41 µM. Where the note is “Table S2, in-house analogs”, the Efficacy is reported as -74.85 and the CC-v2 is given as -1.2. Besides, the LLE (Table S7, pAC50 − cLogP) is reported as 2.143.

Take `COc1ccc(N2CCN(c3nc(C(=O)NCc4ccc(F)cc4F)cs3)CC2)cc1` [NCGC00430664-01]: the AC50 was found to be 4.47 µM. For the setting “Table S2, in-house analogs”, this compound had an Efficacy of -32.83 and a CC-v2 of -1.4.

With `COc1ccc(N2CCN(c3nc(C(=O)NCc4ccccc4C)cs3)CC2)cc1` [NCGC00430666-01], half-maximal activity (AC50) was put at 3.55 µM. Under “Table S2, in-house analogs”, this compound gave an Efficacy of -54.85 and a CC-v2 of -1.2.

Turning to `COc1ccc(N2CCN(c3nc(C(=O)NCc4ccc(C)cc4)cs3)CC2)cc1` [NCGC00430668-01], the AC50 was found to be 3.98 µM. Further, under “Table S2, in-house analogs”, the Efficacy was -57.20 and the CC-v2 is on record as -1.2.

As to `COc1ccc(N2CCN(c3nc(C(=O)NCC4CCCCC4)cs3)CC2)cc1` [NCGC00430670-01], half-maximal activity (AC50) was put at 0.25 µM. For the setting “Table S2, in-house analogs”, the Efficacy is given as -27.44 and the CC-v2 is -1.4.

In the case of `COc1ccc(N2CCN(c3nc(C(=O)NC4CC4)cs3)CC2)cc1` [NCGC00430672-01], the AC50 turned out to be 0.11 µM. For the setting “Table S2, in-house analogs”, this compound showed an Efficacy of -32.51 and a CC-v2 of -1.2.

The compound `COc1cccc(N2CCN(c3nc(C(=O)NCc4cccnc4)cs3)CC2)c1` [NCGC00430684-01] had an AC50 of 14.1 µM. Where the note is “Table S2, in-house analogs”, this compound showed an Efficacy of -68.54 and a CC-v2 of -2.2.

`COc1cccc(N2CCN(c3nc(C(=O)NCc4ccncc4)cs3)CC2)c1` [NCGC00430686-01] showed an AC50 of 12.6 µM. Under “Table S2, in-house analogs”, the Efficacy is reported as -75.42 and the CC-v2 is on record as -2.2.

Consider `COc1cccc(N2CCN(c3nc(C(=O)NCc4ccccc4F)cs3)CC2)c1` [NCGC00430688-01], for which the AC50 is 2.82 µM. Where the note is “Table S2, in-house analogs”, this compound had an Efficacy of -45.69 and a CC-v2 of -1.2.

Compound `O=C(NCc1ccccc1)c1csc(N2CCN(c3ccc(Cl)cc3)CC2)n1` [NCGC00430698-01] gave a half-maximal activity concentration (AC50) of 2 µM. Moreover, where the note is “Table S2, in-house analogs”, the Efficacy is given as -75.40 and the CC-v2 is on record as -1.2.

Consider `O=C(NC1CCCC1)c1csc(N2CCN(c3cccc(Cl)c3)CC2)n1` [NCGC00430704-01], for which half-maximal activity (AC50) was put at 15.8 µM. For the same compound, for the setting “Table S2, in-house analogs”, the Efficacy was -42.05 and the CC-v2 is given as -2.4.

`O=C(NCc1ccncc1)c1csc(N2CCN(c3ccccc3F)CC2)n1` [NCGC00430720-01] registered an AC50 of 15.8 µM. For the setting “Table S2, in-house analogs”, this compound showed an Efficacy of -57.30 and a CC-v2 of -2.2.

Take `O=C(NCc1ccc(F)cc1)c1csc(N2CCN(c3ccccc3F)CC2)n1` [NCGC00430726-01]: half-maximal activity (AC50) was put at 2 µM. Under “Table S2, in-house analogs”, the Efficacy is -64.54 and the CC-v2 is -1.2.

Consider `O=C(NCC1CC1)c1csc(N2CCN(c3ccccc3F)CC2)n1` [NCGC00430728-01], for which the AC50 is 28.2 µM. Under “Table S2, in-house analogs”, this compound came in with an Efficacy of -37.07 and a CC-v2 of -2.4.

In turn, `O=C(NCc1cccs1)c1csc(N2CCN(c3ccccc3F)CC2)n1` [NCGC00430730-01] showed an AC50 of 6.31 µM. For the setting “Table S2, in-house analogs”, the Efficacy is reported as -78.52 and the CC-v2 was -1.2.

Take `O=C(NCc1ccccc1Cl)c1csc(N2CCN(c3ccc(F)cc3)CC2)n1` [NCGC00430734-01]: the AC50 turned out to be 1.78 µM. Where the note is “Table S2, in-house analogs”, this compound returned an Efficacy of -71.11 and a CC-v2 of -1.2.

As to `O=C(NCc1cccs1)c1csc(N2CCN(c3ccc(F)cc3)CC2)n1` [NCGC00430736-01], the activity was half-maximal at 7.08 µM (AC50). Further, for the setting “Table S2, in-house analogs”, the Efficacy is recorded as -65.35 and the CC-v2 is -1.2.

Regarding `COc1cccc(CNC(=O)CCNc2cnc3cnccn23)c1` [NCGC00433986-01], the AC50 was 14.1 µM. Under “Table S1, primary screen”, the Efficacy was -81.82 and the CC-v2 is listed as -2.2.

Take `C[S+](=O)([O-])c1ccc(N2CCN(CC3(O)CNCCOC3)CC2)c(F)c1` (stereo not drawn) [NCGC00435271-01]: the AC50 worked out at 20 µM. Under “Table S1, primary screen”, this compound gave an Efficacy of -66.49 and a CC-v2 of -3.

In turn, `CCOc1ccc(C(=O)NC2CCN(c3cc(-c4ccc(OC)cc4)n[nH]3)C2)cc1OCC` (stereo not drawn) [NCGC00438182-01] displayed an AC50 of 2.51 µM. For the setting “Table S1, primary screen”, this compound returned an Efficacy of -29.34 and a CC-v2 of -1.4.

As for `CN(C)CC1(O)CCN(C(=O)Cn2cc(C(=O)C3CC3)c3ccccc32)C1` (stereo not drawn) [NCGC00438461-01], the AC50 was 35.5 µM. Under “Table S1, primary screen”, this compound displayed an Efficacy of -41.61 and a CC-v2 of -2.4.

Consider `O=C(Nc1ccc2c(c1)OCCO2)N1CCC(Cc2nnc(-c3ccncc3)[nH]2)C1` (stereo not drawn) [NCGC00438506-01], for which the AC50 is 5.62 µM. For the setting “Table S1, primary screen”, this compound displayed an Efficacy of -41.70 and a CC-v2 of -2.4.

For `COc1ccc(NC2CCCN(C(=O)c3cn(CCCN)nn3)C2)cc1` (stereo not drawn) [NCGC00439852-01], the AC50 is 0.89 µM. Also, for the setting “Table S1, primary screen”, the Efficacy is -61.76 and the CC-v2 is -1.2.

In the case of `CCCNC(=O)N1CC(Oc2ccc(-c3nc(C)no3)cc2)C1` [NCGC00441061-01], half-maximal activity (AC50) was put at 31.6 µM. Besides, for the setting “Table S1, primary screen”, the Efficacy is -48.80 and the CC-v2 was -2.2.

Turning to `O=C(CCc1cc2n(n1)CCCNC2)Nc1ccc2c(c1)OCCO2` [NCGC00441819-01], the AC50 stood at 15.8 µM. Moreover, for the setting “Table S1, primary screen”, the Efficacy is recorded as -25.02 and the CC-v2 is listed as -2.4.

`COc1cccc(CN2CC(C(=O)NCc3cc4ccccc4[nH]3)CCC2=O)c1` (stereo not drawn) [NCGC00449252-01] registered an AC50 of 15.8 µM. Where the note is “Table S1, primary screen”, this compound registered an Efficacy of -45.94 and a CC-v2 of -2.2.

Consider `Cc1ccc2nc(CN3CCC(c4cccc(C#N)c4)CC3)cc(O)c2c1` [NCGC00449346-01], for which the AC50 amounted to 4.47 µM. For the setting “Table S1, primary screen”, this compound registered an Efficacy of -31.03 and a CC-v2 of -1.2.

In turn, `O=C(NCc1ccc(Cl)cc1)c1cc2n(n1)CC(c1ccc3c(c1)OCO3)OC2` (stereo not drawn) [NCGC00450299-01] gave an AC50 of 10 µM. Under “Table S1, primary screen”, this compound yielded an Efficacy of -21.09 and a CC-v2 of -1.4.

On to `COc1cccc(CN2CC(Oc3ccccc3C(=O)NC3CC3)C2)c1` [NCGC00458073-01], for which the AC50 is 39.8 µM. In addition, where the note is “Table S1, primary screen”, the Efficacy is -51.44 and the CC-v2 was -3.

As to `COc1ccc(CCN2Cc3cc(NC(=O)Cc4cccs4)ccc3OCC2=O)cc1` [NCGC00475032-01], the AC50 turned out to be 15.8 µM. Besides, where the note is “Table S1, primary screen”, the Efficacy was -43.09 and the CC-v2 is -2.4.

Consider `C=CCOc1c(OC)ccc2c1CN(Cc1ccccc1)C(=O)CCN2CC(O)COc1ccc(OC)cc1` (stereo not drawn) [NCGC00501442-01], for which the AC50 was found to be 8.91 µM. Besides, under “Table S1, primary screen”, the Efficacy is -29.51 and the CC-v2 is on record as -1.4.
